Results from ChEMBL document CHEMBL5726860, “Phthalazinones and isoquinolinones as rock inhibitors” (2018).

target: Rho-associated protein kinase 2 (Homo sapiens, UniProt O75116); assay: (§1) In Vitro Assay: The effectiveness of compounds of the present invention as ROCK inhibitors can be determined in a 30 μL assay containing 20 mM HEPES, pH 7.5, 20 mM MgCl2, 0.015% Brij-35, 4 mM DTT, 5 μM ATP and 1.5 μM peptide substrate (FITC-AHA-[…]-OH). Compounds were dissolved in DMSO so that the final concentration of DMSO was <2%, and the reaction was initiated with Rho kinase variants. After incubation, the reaction was terminated by the addition of EDTA and the phosphorylated and non-phosphorylated peptides separated using a LABCHIP® 3000 Reader (Caliper Life Sciences). […] Compounds were tested in dose-response format, and the inhibition of kinase activity was calculated at each concentration of compound. The inhibition data were fit using a curve-fitting program to determine the IC50; i.e., the concentration of compound required to inhibit 50% of kinase activity.
Sequence (O75116 whole entry, looked up, change not shown): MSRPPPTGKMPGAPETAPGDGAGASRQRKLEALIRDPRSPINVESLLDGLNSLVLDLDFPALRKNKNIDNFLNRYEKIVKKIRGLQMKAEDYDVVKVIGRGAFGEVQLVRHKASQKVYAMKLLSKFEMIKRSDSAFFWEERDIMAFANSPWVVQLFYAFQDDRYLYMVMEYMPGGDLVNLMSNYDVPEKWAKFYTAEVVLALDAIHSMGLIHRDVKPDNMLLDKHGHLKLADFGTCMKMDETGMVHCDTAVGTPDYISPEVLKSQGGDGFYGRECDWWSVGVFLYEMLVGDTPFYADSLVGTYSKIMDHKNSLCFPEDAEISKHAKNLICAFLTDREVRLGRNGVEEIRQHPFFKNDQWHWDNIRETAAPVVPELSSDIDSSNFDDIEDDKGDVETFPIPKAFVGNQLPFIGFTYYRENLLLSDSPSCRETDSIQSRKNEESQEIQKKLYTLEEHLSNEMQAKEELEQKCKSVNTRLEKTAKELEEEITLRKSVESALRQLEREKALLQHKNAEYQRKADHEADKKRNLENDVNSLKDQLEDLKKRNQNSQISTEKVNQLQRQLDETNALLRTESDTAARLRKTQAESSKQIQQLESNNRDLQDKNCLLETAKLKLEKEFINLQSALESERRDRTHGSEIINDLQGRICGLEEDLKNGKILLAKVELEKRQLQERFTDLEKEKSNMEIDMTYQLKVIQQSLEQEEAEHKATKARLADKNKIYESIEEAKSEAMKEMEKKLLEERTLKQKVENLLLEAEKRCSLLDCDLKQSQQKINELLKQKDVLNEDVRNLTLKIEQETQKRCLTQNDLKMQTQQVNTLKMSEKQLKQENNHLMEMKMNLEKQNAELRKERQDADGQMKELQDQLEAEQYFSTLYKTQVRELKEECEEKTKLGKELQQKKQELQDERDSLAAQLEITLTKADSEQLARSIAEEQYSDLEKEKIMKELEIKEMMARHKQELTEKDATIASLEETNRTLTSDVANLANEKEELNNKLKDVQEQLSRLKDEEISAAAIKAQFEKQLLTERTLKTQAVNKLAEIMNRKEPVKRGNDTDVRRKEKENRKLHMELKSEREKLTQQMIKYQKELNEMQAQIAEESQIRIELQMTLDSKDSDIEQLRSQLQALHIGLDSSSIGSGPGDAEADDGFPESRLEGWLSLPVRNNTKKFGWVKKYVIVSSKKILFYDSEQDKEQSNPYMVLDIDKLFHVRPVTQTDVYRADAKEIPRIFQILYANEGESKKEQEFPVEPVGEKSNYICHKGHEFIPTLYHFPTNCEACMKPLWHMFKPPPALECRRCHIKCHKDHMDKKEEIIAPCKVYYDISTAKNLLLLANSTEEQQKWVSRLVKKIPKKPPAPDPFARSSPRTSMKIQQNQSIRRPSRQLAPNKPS

Row | SMILES | IC50
1 | O=C(Nc1ccc(-c2n[nH]c(=O)c3ccccc23)cc1)c1cnn(C2CCS(=O)(=O)C2)c1 (stereo not drawn) | < 100 nM
2 | O=C(Nc1ccc(-c2n[nH]c(=O)c3ccccc23)cc1)c1cnn(CC(F)(F)F)c1 | < 100 nM
3 | CCCn1cc(C(=O)Nc2ccc(-c3n[nH]c(=O)c4ccccc34)cc2)cn1 | < 100 nM
4 | O=C(Nc1ccc(-c2n[nH]c(=O)c3ccccc23)cc1)c1cc2ncccn2n1 | < 100 nM
5 | O=C(Nc1ccc(-c2n[nH]c(=O)c3ccccc23)cc1)c1cnn(CC(F)(F)C(F)F)c1 | < 100 nM
6 | O=C(Nc1ccc(-c2n[nH]c(=O)c3ccccc23)cc1)c1cnn(C2CCCC2)c1 | < 100 nM
7 | O=C(Nc1ccc(-c2n[nH]c(=O)c3ccccc23)c(Cl)c1)c1nn(CC2CNC2)c2ccccc12 | < 100 nM
8 | O=C(Cc1ccc(-c2c[nH]c(=O)c3ccccc23)c(F)c1)N1Cc2ccccc2C1 | < 100 nM
9 | O=C(Nc1ccc(-c2n[nH]c(=O)c3ccccc23)cc1)c1cn2ccnc(Cl)c2n1 | < 100 nM
10 | O=C(Nc1ccc(-c2n[nH]c(=O)c3ccccc23)cc1)c1c[nH]c2ncc(F)cc12 | < 100 nM
11 | Cc1ccc2oc(Nc3ccc(-c4n[nH]c(=O)c5ccccc45)cc3)nc2c1 | < 100 nM
12 | O=C(Nc1ccc(-c2n[nH]c(=O)c3ccccc23)cc1)c1nn(CC2CCNCC2)c2ccccc12 | < 100 nM
13 | CC(O)Cn1cc(C(=O)Nc2ccc(-c3n[nH]c(=O)c4ccccc34)cc2)cn1 (stereo not drawn) | < 100 nM
14 | O=C(Nc1ccc(-c2n[nH]c(=O)c3ccccc23)cc1)c1cnn(CC(O)C(F)(F)F)c1 (stereo not drawn) | < 100 nM
15 | O=C(Nc1ccc(-c2c[nH]c(=O)c3ccccc23)cc1)c1ccc(N2CCOCC2)cc1 | < 100 nM
16 | O=C(Nc1ccc(-c2n[nH]c(=O)c3ccccc23)c(CO)c1)c1nn(CCC2CCOCC2)c2ccccc12 | < 100 nM
17 | O=C(Nc1ccc(-c2n[nH]c(=O)c3ccccc23)cc1)c1cn[nH]c1 | < 100 nM
18 | O=c1[nH]nc(-c2ccc(Nc3nnc(-c4ccccc4)s3)cc2)c2ccccc12 | < 100 nM
19 | O=C(Nc1ccc(-c2n[nH]c(=O)c3ccccc23)cc1)c1cnn2ccc(OCCO)cc12 | < 100 nM
20 | O=C(Nc1ccc(-c2n[nH]c(=O)c3ccccc23)cc1)c1cnn(C2CCCCC2)c1 | < 100 nM
21 | CCc1c(C(=O)Nc2ccc(-c3n[nH]c(=O)c4ccccc34)cc2)nnn1-c1cccc(Cl)c1 | < 100 nM
22 | O=C(Nc1ccc(-c2n[nH]c(=O)c3ccccc23)cc1)c1cnn(CC2CC2)c1 | < 100 nM

target: Rho-associated protein kinase 1 (Homo sapiens, UniProt Q13464); assay: as §1
Sequence (Q13464 2-1354 limits assumed, change not shown): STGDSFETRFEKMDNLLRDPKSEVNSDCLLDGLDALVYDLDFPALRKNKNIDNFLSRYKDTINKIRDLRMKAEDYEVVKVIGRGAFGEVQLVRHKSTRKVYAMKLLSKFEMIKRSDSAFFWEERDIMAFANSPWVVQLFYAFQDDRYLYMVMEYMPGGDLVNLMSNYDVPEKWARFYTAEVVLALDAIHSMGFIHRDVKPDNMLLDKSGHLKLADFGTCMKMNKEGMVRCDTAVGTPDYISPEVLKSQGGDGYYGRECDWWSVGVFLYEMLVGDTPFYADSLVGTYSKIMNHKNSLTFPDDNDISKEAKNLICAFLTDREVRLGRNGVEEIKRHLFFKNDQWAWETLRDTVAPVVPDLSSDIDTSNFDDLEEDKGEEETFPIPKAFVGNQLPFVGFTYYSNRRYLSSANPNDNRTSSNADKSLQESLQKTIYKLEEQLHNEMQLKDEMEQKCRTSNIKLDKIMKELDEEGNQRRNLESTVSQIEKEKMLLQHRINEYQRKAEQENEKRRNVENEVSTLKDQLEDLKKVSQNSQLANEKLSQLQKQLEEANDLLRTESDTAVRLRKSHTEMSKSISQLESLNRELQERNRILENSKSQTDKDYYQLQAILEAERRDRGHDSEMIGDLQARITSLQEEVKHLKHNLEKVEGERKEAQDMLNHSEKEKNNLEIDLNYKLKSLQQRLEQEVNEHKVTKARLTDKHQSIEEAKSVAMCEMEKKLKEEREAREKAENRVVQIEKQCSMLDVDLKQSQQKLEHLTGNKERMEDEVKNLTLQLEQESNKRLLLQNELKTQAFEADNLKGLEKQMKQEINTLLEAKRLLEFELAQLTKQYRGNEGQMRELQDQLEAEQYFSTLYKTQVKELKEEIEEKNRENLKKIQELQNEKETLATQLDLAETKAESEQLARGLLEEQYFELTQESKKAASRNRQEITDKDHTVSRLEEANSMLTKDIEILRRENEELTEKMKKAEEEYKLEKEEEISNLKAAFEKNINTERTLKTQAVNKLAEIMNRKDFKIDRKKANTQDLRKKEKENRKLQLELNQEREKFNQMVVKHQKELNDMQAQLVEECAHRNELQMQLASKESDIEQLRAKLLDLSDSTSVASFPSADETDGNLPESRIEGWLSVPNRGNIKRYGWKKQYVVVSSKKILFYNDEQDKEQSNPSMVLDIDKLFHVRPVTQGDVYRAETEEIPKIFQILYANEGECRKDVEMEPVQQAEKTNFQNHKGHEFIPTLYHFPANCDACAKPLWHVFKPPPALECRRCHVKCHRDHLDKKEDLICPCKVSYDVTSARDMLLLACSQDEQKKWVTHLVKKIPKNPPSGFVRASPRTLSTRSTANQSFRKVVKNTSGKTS

Row | SMILES | IC50
23 | O=C(Oc1ccc(-c2n[nH]c(=O)c3ccccc23)cc1)N1Cc2ccccc2C1 | in the range around 550 nM
